Reference: ChEMBL document CHEMBL1201862, “PubChem BioAssay data set” (2004)
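Assay format: 96-well plates, 48-hour exposure. Here, GI50 denotes the concentration required for 50% inhibition of growth.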 Calls of active or inactive are those of the source. Cut-off read from the data, not from the text of the source: active = GI50 up to about 1.1 µM and inactive = higher.

How the values were obtained:
Assay in all cases: NCI-60 cell line screen, 48 h
OVCAR-3 = system: OVCAR-3
SK-MEL-28 = system: SK-MEL-28
SN12C = system: SN12C
K562 = system: K562
NCI-H522 = system: NCI-H522
ACHN = system: ACHN
HOP-92 = system: HOP-92
MDA-N = system: MDA-N
NCI-H23 = system: NCI-H23
BT-549 = system: BT-549
CAKI-1 = system: CAKI-1
Malme-3M = system: Malme-3M
NCI-H226 = system: NCI-H226
SR = system: SR
U-251 = system: U-251
HL-60 = system: HL-60
MCF7 = system: MCF7
DU-145 = system: DU-145
TK-10 = system: TK-10

Structure (SMILES) | GI50 (OVCAR-3) | GI50 (SK-MEL-28) | GI50 (SN12C) | GI50 (K562) | GI50 (NCI-H522) | GI50 (ACHN) | GI50 (HOP-92) | GI50 (MDA-N) | GI50 (NCI-H23) | GI50 (BT-549) | GI50 (CAKI-1) | GI50 (Malme-3M) | GI50 (NCI-H226) | GI50 (SR) | GI50 (U-251) | GI50 (HL-60) | GI50 (MCF7) | GI50 (DU-145) | GI50 (TK-10)
c1ccc2c3ccn4ccc5c6ccccc6[nH]c5c4c-3nc2c1 | 0.236 µM (active) | 1.7 µM (inactive) | 0.735 µM (active) | 0.201 µM (active) | 1.46 µM (inactive) | 1.43 µM (inactive) | 1.43 µM (inactive) | 1.34 µM (inactive) | 1.69 µM (inactive) | 1.77 µM (inactive) | 1.42 µM (inactive) | 1.65 µM (inactive) | 1.67 µM (inactive) | 0.0594 µM (active) | 0.155 µM (active) | 0.935 µM (active) | 0.331 µM (active) | 1.43 µM (inactive) | 2.62 µM (inactive)
Cc1ccc(C)c(C(=N)c2ccccc2Cc2ccccc2)c1 | 13.3 µM (inactive) | 26.4 µM (inactive) | 17.3 µM (inactive) | 17.9 µM (inactive) | 13.2 µM (inactive) | 18.2 µM (inactive) | 17 µM (inactive) | 23 µM (inactive) | 26.9 µM (inactive) | 32.7 µM (inactive) | 22.6 µM (inactive) | 13 µM (inactive) | 16.4 µM (inactive) | 19.2 µM (inactive) | 15.5 µM (inactive) | 18.5 µM (inactive) | 15.7 µM (inactive) | 22.9 µM (inactive) | 47.9 µM (inactive)
O=S1(=O)N=C(SCc2ccccc2)N(c2ccccc2)c2ccncc21 | 31.9 µM (inactive) | 91.2 µM (inactive) | 42.2 µM (inactive) | 29.9 µM (inactive) | 18.7 µM (inactive) | 57.7 µM (inactive) | 22.2 µM (inactive) | 27.4 µM (inactive) | 29.6 µM (inactive) | 25.5 µM (inactive) | 39.2 µM (inactive) | 49.5 µM (inactive) | 37.6 µM (inactive) | 21.2 µM (inactive) | 39.2 µM (inactive) | 29.6 µM (inactive) | 31.2 µM (inactive) | 30.5 µM (inactive) | 35.7 µM (inactive)
C=C(C)C(=O)O[C@@H]1C/C(C)=C\[C@H](OC(C)=O)C[C@](C)(O)/C=C2/OC(=O)C(COC(C)=O)=C21 | 0.726 µM (active) | 0.251 µM (active) | 0.783 µM (active) | 0.122 µM (active) | 0.196 µM (active) | 0.556 µM (active) | 0.437 µM (active) | 0.467 µM (active) | 1.77 µM (inactive) | 1.37 µM (inactive) | 0.329 µM (active) | 0.274 µM (active) | 1.91 µM (inactive) | 0.0423 µM (active) | 1.09 µM (active) | 0.013 µM (active) | 1.05 µM (active) | 2.37 µM (inactive) | 1.5 µM (inactive)
O=C(CCN1CC2CCC(CC2)C1)c1cccs1 | 21.1 µM (inactive) | 17.1 µM (inactive) | 18.1 µM (inactive) | 17.5 µM (inactive) | 17.4 µM (inactive) | 18.7 µM (inactive) | 6.01 µM (inactive) | 17.1 µM (inactive) | 18.4 µM (inactive) | 21.4 µM (inactive) | 18.7 µM (inactive) | 21.1 µM (inactive) | > 100 µM (inactive) | 4.49 µM (inactive) | 18.3 µM (inactive) | 20.7 µM (inactive) | 8.59 µM (inactive) | 17.6 µM (inactive) | 8.73 µM (inactive)
CSC(SC)=C1CC(=O)Nc2ccccc2C1=O | 45 µM (inactive) | 36.8 µM (inactive) | 63.1 µM (inactive) | 27.7 µM (inactive) | 57 µM (inactive) | > 100 µM (inactive) | 22.2 µM (inactive) | 40.6 µM (inactive) | 29.9 µM (inactive) | 40.3 µM (inactive) | 34.1 µM (inactive) | 37.4 µM (inactive) | > 100 µM (inactive) | 27.5 µM (inactive) | 40.3 µM (inactive) | 27.7 µM (inactive) | 47.6 µM (inactive) | 91.6 µM (inactive) | 37 µM (inactive)
COC(=O)c1n[nH]c(C)c1/N=N/N(C)CCC#N | 18.7 µM (inactive) | 29.8 µM (inactive) | 16.5 µM (inactive) | 15.3 µM (inactive) | 10.5 µM (inactive) | 11.6 µM (inactive) | 14.7 µM (inactive) | 47.5 µM (inactive) | 16.3 µM (inactive) | 10.9 µM (inactive) | 11.3 µM (inactive) | 15.2 µM (inactive) | 12.8 µM (inactive) | 5.79 µM (inactive) | 16.7 µM (inactive) | 27.5 µM (inactive) | 7.14 µM (inactive) | 15.1 µM (inactive) | 20.9 µM (inactive)
Cc1c(-c2ccccc2)c(C#N)c2nnn(C)c(=O)n12 | > 100 µM (inactive) | > 100 µM (inactive) | > 100 µM (inactive) | > 100 µM (inactive) | > 100 µM (inactive) | > 100 µM (inactive) | > 100 µM (inactive) | > 100 µM (inactive) | > 100 µM (inactive) | > 100 µM (inactive) | > 100 µM (inactive) | > 100 µM (inactive) | > 100 µM (inactive) | 65.6 µM (inactive) | > 100 µM (inactive) | > 100 µM (inactive) | > 100 µM (inactive) | > 100 µM (inactive) | > 100 µM (inactive)
COc1cc2cc(C(=O)Nc3cc4n(n3)-c3ccccc3C4)[nH]c2c(OC)c1OC | 2.19 µM (inactive) | 3.72 µM (inactive) | 8.79 µM (inactive) | 3.36 µM (inactive) | 1.08 µM (active) | 4.72 µM (inactive) | 2.18 µM (inactive) | 2.35 µM (inactive) | 2.75 µM (inactive) | 1.19 µM (inactive) | 1.72 µM (inactive) | 1.29 µM (inactive) | 1.22 µM (inactive) | 2.26 µM (inactive) | 8.04 µM (inactive) | 2.25 µM (inactive) | 2.58 µM (inactive) | 6.73 µM (inactive) | 1.85 µM (inactive)
C/C(=N\Nc1ncnc2ccccc12)c1ccccn1 | < 0.0166 µM (active) | 0.369 µM (active) | 0.026 µM (active) | < 0.0106 µM (active) | < 0.01 µM (active) | 0.0169 µM (active) | 0.25 µM (active) | 0.384 µM (active) | < 0.0244 µM (active) | 0.587 µM (active) | < 0.01 µM (active) | < 0.0315 µM (active) | 0.0276 µM (active) | 0.0317 µM (active) | < 0.0214 µM (active) | < 0.01 µM (active) | 0.0138 µM (active) | 0.0718 µM (active) | 0.157 µM (active)
O=C1OCC/C1=C/c1ccc(/N=N/c2c(O)ccc3ccccc23)cc1 | 18.1 µM (inactive) | 18.9 µM (inactive) | 18.2 µM (inactive) | 28.6 µM (inactive) | 22.9 µM (inactive) | 17.5 µM (inactive) | 27.4 µM (inactive) | 13.8 µM (inactive) | 19.5 µM (inactive) | 23.2 µM (inactive) | 19.7 µM (inactive) | 15.6 µM (inactive) | 19.4 µM (inactive) | 15.2 µM (inactive) | 18.7 µM (inactive) | 22.6 µM (inactive) | 24.8 µM (inactive) | 17.7 µM (inactive) | 19.9 µM (inactive)
O=C(CSC1=NCCN1)c1ccccc1 | > 100 µM (inactive) | > 100 µM (inactive) | > 100 µM (inactive) | > 100 µM (inactive) | > 100 µM (inactive) | > 100 µM (inactive) | > 100 µM (inactive) | > 100 µM (inactive) | > 100 µM (inactive) | > 100 µM (inactive) | > 100 µM (inactive) | > 100 µM (inactive) | > 100 µM (inactive) | > 100 µM (inactive) | > 100 µM (inactive) | < 0.01 µM (active) | > 100 µM (inactive) | > 100 µM (inactive) | > 100 µM (inactive)
Nc1ccc(Oc2ccc(C3(c4ccc(Oc5ccc(N)cc5)cc4)C4CC5C6CC7CC5C3C(C7)C6C4)cc2)cc1 | 2.01 µM (inactive) | > 100 µM (inactive) | 12.1 µM (inactive) | 16 µM (inactive) | > 81.7 µM (inactive) | 48.5 µM (inactive) | 0.668 µM (active) | 14.5 µM (inactive) | 26.3 µM (inactive) | > 100 µM (inactive) | 39 µM (inactive) | > 78.3 µM (inactive) | > 55.8 µM (inactive) | 9.2 µM (inactive) | 1.03 µM (active) | 14 µM (inactive) | 7.53 µM (inactive) | 9.04 µM (inactive) | > 78 µM (inactive)
CCC1C2Cc3ccc(O)cc3C1(CC)CCN2C (stereo not given) | > 100 µM (inactive) | > 100 µM (inactive) | > 100 µM (inactive) | > 100 µM (inactive) | > 100 µM (inactive) | > 100 µM (inactive) | > 100 µM (inactive) | > 100 µM (inactive) | > 100 µM (inactive) | > 100 µM (inactive) | > 100 µM (inactive) | > 100 µM (inactive) | > 100 µM (inactive) | > 100 µM (inactive) | > 100 µM (inactive) | > 100 µM (inactive) | > 100 µM (inactive) | > 100 µM (inactive) | > 100 µM (inactive)
Nc1ccccc1CCCC(=O)O | > 100 µM (inactive) | > 100 µM (inactive) | > 100 µM (inactive) | > 100 µM (inactive) | > 100 µM (inactive) | > 100 µM (inactive) | > 100 µM (inactive) | > 100 µM (inactive) | > 100 µM (inactive) | > 100 µM (inactive) | > 100 µM (inactive) | > 100 µM (inactive) | > 100 µM (inactive) | > 100 µM (inactive) | > 100 µM (inactive) | 45.4 µM (inactive) | > 100 µM (inactive) | > 100 µM (inactive) | > 100 µM (inactive)
